According to patent publication US7820803B2, “Immobilized phosphatidic acid probe” (priority 2000, dated 2010):

Tests used:
[1] = Solubility of ω-amino phosphatidic acid in solvents; format: physicochemical; conditions: in a range of solvents; chloroform-methanol-water needed
Description: The immobilised PA [1] was prepared by coupling of the ω-amino phosphatidic acid (−), which was synthesised in 7 steps starting from the optically pure protected glycerol derivative (−), with the N-hydroxysuccinimide (NHS) activated ester agarose resin, Affi-Gel 10, as is depicted in Scheme 1. […] Excess resin (ca. 5 equiv. of NHS-groups) was used, resulting in a loading of 80% [2] onto the beads, as determined by the quantification of recovered by 1H-NMR in the presence of an internal standard.
Finally, the PA amine 33 and PtdIns(4,5)P2 amine 34 were coupled to the N-hydroxysuccinimide (NHS)-activated ester resin, Affi-Gel 10, to afford the corresponding affinity matrices 31 and 32. The PtdIns(4,5)P2 modified matrix was prepared in water using excess NaHCO3, by reacting the activated Affi Gel 10 [resin […] (4 mL)] with the amine 34 ([…]) to give a loading of 4.5 mmol as judged from the recovery of the amino phospholipid 34, that was quantified by 500 MHz ^1H-NMR spectroscopy in the presence of myo-inositol orthoformate 43 as the internal standard.

[2] = target: T1, α-tocopherol-transfer protein (ATTP) (Homo sapiens, UniProt P49638); test: Recombinant protein binding to derivatised beads: inhibition by free phosphoinositides (FIG. 11); conditions: all lipids at one concentration, relative affinity
T1 construct: His (N); made in house; host or cells: E. coli
T1 sequence (P49638 1-278): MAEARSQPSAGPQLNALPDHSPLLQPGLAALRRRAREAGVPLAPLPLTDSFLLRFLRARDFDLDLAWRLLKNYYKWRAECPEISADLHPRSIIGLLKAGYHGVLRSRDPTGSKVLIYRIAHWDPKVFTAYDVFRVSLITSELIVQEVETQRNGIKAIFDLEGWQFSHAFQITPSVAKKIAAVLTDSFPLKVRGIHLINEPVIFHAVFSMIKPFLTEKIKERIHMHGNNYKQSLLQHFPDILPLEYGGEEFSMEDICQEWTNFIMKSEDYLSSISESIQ
Source text: (§1) FIG. 11. Protein binding to derivatised beads: inhibition by free phosphoinositides. Recombinant proteins (in Cos cell lysates or expressed and purified) were bound to PtdIns(3,4,5)P3 or PtdIns(3,4)P2 beads in the presence of various free phosphoinositides (for details, see Methods). For PIP3-E, a full length construct was expressed in Cos cells while a truncated version (residues 40-437) was purified from E.Coli. […] Unless otherwise indicated, the first lane was loaded with a sample equivalent to 1% (Cos cell lysates) or 10% (purified recombinant proteins) of the protein sample that was incubated with beads. As appropriate, tagged proteins were detected with antibodies (anti-myc, anti-GFP, anti-HIS, or anti-EE; see Methods) or by silver-staining (PIP3-G/H-EE, EE-myosin 1F, GST-cytohesin-4, DAPP1, PIP3-E, MEG-2 and CDC42-GAP). For each protein, the data shown are representative of information collected in 4 independent experiments. […]
(§2) Samples of the supernatants were diluted up to 4-fold in lysis buffer, depending on expression levels, and mixed with indicated concentrations of phosphoinositide in 1 ml (FIG. 11) for 10 min on ice. […] Proteins were eluted with SDS sample buffer, separated by SDS-PAGE and detected by immunoblotting [anti-myc (monoclonal 9E10) or anti-GFP (rabbit polyclonal): Clontech). […]

[3] = target: T2, SR1 (Homo sapiens, UniProt Q8IWB7); test: as above; conditions: all lipids at one concentration, relative affinity
T2 construct: Multiple overlapping clones allowed prediction of full-length human ORFs for each protein; EE (N); made in house; host or cells: Sf9 (baculovirus)
T2 sequence (Q8IWB7 1-410): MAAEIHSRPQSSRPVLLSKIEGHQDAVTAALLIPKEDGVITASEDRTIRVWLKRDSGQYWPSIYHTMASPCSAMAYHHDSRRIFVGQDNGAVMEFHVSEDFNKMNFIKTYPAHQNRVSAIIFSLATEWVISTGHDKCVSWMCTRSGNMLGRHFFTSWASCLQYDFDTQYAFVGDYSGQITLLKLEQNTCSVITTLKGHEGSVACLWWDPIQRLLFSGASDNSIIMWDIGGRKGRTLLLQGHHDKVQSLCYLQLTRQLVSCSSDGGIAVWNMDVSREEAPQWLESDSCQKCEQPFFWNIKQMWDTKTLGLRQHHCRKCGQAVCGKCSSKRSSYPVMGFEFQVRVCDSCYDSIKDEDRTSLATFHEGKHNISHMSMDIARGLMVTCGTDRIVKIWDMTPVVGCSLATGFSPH
Source text: as §1, §2

[4] = target: T3, SR3 (Homo sapiens, UniProt Q9HBF4); test: as above; conditions: all lipids at one concentration, relative affinity
T3 construct: Multiple overlapping clones allowed prediction of full-length human ORFs for each protein; EE (N); made in house; host or cells: Sf9 (baculovirus)
T3 sequence (Q9HBF4 1-777): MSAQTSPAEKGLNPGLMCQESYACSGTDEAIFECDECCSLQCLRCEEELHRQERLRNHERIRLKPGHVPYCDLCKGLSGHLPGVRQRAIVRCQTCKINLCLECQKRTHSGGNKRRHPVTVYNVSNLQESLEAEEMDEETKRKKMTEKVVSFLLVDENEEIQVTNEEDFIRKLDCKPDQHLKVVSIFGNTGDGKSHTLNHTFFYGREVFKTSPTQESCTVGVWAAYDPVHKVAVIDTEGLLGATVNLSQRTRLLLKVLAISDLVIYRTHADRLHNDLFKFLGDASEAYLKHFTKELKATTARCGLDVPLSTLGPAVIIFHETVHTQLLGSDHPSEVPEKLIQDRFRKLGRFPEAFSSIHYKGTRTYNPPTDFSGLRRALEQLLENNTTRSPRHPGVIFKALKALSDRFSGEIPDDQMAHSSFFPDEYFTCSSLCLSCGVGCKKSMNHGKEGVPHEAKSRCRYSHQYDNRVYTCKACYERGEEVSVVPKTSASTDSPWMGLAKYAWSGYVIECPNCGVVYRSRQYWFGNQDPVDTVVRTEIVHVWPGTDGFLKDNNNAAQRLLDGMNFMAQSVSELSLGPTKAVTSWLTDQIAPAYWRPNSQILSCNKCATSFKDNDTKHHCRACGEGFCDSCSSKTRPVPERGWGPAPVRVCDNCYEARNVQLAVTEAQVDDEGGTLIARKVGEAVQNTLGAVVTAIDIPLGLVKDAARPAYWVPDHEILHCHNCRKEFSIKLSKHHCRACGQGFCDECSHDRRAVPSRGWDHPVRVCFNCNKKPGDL
Source text: as §1, §2

With `CCCCCCCCCCCCCCCC(=O)O[C@H](COC(=O)CCCCCCCCCCCN)COP(=O)(O)O` [[2], 1-O-(12-Amino)dodecanoyl-2-O-hexadecanoyl-sn-glycer-3-ylphosphate] the solubility [1] was “poor solubility”.
In the case of `CCCCCCCCCCCCCCCC(=O)OC[C@H](COP(=O)(O)O[C@H]1[C@H](O)[C@@H](OP(=O)(O)O)[C@H](O)[C@@H](O)[C@H]1O)OC(=O)CCCCCCCCCCCCCCC` [PtdIns5P], the “displacement of ATTP from PtdIns(3,4)P2 beads by free phosphoinositide” value [2] is reported as “displaced most effectively”.
With `CCCCCCCCCCCCCCCC(=O)OC[C@H](COP(=O)(O)O[C@@H]1[C@H](O)[C@H](OP(=O)(O)O)[C@@H](O)[C@H](O)[C@H]1O)OC(=O)CCCCCCCCCCCCCCC` [PtdIns3P] the “displacement of SR1 from PtdIns(3,4)P2 beads by free phosphoinositide” value [3] was “most effectively” and the “displacement of SR3 from PtdIns(3,4)P2 beads by free phosphoinositide” value [4] was “most effectively”.
In the case of `CCCCCCCCCCCCCCCC(=O)OC[C@H](COP(=O)(O)OC1[C@H](O)[C@H](O)C(OP(=O)(O)O)[C@H](O)[C@H]1O)OC(=O)CCCCCCCCCCCCCCC` (some centres unmarked) [PtdIns4P], the “displacement of ATTP from PtdIns(3,4)P2 beads by free phosphoinositide” value [2] is reported as “displaced most effectively”.
